Entries after “also recorded” stand apart in the source; their conditions may differ.
Experiments:
DNA = settings: cited from earlier work
LDLR mRNA [1] = test: Northern blot analysis of LDLR mRNA expression in HepG2 cells; assay type: cell-based, human; settings: each alkaloid 20 μg/ml, 8 h
Procedure: . The membrane was stripped and hybridized to a human GAPDH probe. The figure shown is representative of 3 separate studies.
FIG. 2 illustrates the comparison of dose-dependent effects of CND and BBR on LDLR mRNA expression. HepG2 cells were treated with CND or BBR for 8 h at the indicated concentrations and total RNA was isolated for analysis of LDLR mRNA and GAPDH mRNA expression by northern blot (FIG. 2, Panel A) and real-time PCR assays (FIG. 2, Panel B).
(§1) Quantitation of LDLR mRNA expression by northern blot analysis and real-time PCR. Isolation of total RNA and analysis of LDLR and GAPDH mRNA by northern blot were performed as previously described (Liu, J et al. J. Lipid Res. 1997, 38: 2035-2048). Differences in hybridization signals of northern blots were quantitated by a PhosphoImager. For quantitative real-time PCR assays, the reverse transcription was conducted with random primers using M-MLV (Promega) at 37° C. for 1 h in a volume of 25 u.1 containing 1 μg of total RNA. Real-time PCR was performed on the cDNA using ABI Prism 7900-HT Sequence Detection System and Universal MasterMix. The human and hamster LDLR and GAPDH Pre-Developed TaqMan Assay Reagents (Applied Biosystems) were used to assess the mRNA expressions in HepG2 and in hamster livers. The MDR1 mRNA expression in HepG2 cells was assayed similarly using the Pre-Developed probes from Applied Biosystems.
. HPLC/UV-DAD spectroscopic comparisons with standard solutions were used to confirm the presence of BBR, CND, HDT, and HDTN, as well as the absence of PMT. Concentrations of CND and HDT in sample extracts were determined using a single-point calibration and concentrations of BBR in sample extracts were calculated using a standard curve. The identities of BBR, CND, and HDT in extracts were verified further by LC-MS analysis. […]. […]. The results of northern blots were independently confirmed by real-time quantitative RT-PCR (FIG. 1C). […]. […].

ERK [2] = test: Western blot of phosphorylated ERK in hamster liver; assay type: in vivo, Golden Syrian hamsters; settings: pooled liver samples per treatment group (n=9), HFHC hamsters
ERK [3] = test: Western blot of phosphorylated ERK in HepG2 cells; assay type: cell-based, human; settings: HepG2, BBR, HDT or CND 20 μg/ml, 2 h
[4] = Body weight, food intake and adverse effects in HFHC-fed hamsters; assay type: in vivo, Golden Syrian hamsters; settings: 24 day treatment, control animals increased by 10%
Procedure: . The body weight of hamsters under a HFHC diet in untreated and drug-treated animals at indicated doses were monitored on alternate days (FIG. 11, Panel A). The food intake within 24 h period were measured 2-3 times a week throughout the entire experiment (FIG. 11, Panel B). The data are means±S.D. of 3 cages per group.
Goldenseal in vivo studies. 42 male Golden Syrian hamsters at 6-8 weeks of age were purchased from the Charles River Laboratories and were housed in cages (3 animals/cage) in an air-conditioned room with a 12 h light cycle. Animals had free access to autoclaved water and food. After one week on a regular rodent chow diet, 36 hamsters were switched to a rodent HFHC diet containing 1.25% cholesterol and 2.2% fat (Product # D12108, Research Diet, Inc., New Brunswick, N.J.) and 6 hamsters were fed a control normal diet containing 0.37% fat and no cholesterol (Product # D12102, Research Diet, Inc.). […]. Berberine Chloride was dissolved in the same vehicle solution. Four hours after the last drug treatment, all animals were sacrificed. Blood samples were collected through cardiac puncture and were analyzed for liver function, kidney function, and blood chemistry at DEXX Laboratories (Palo Alto, Calif.). […] After staining, tissue sections were evaluated by a veterinary pathologist and an experienced scientist independently. […]

HepG2 cells = test: BBR uptake assay, intracellular fluorescence by FACS in HepG2 cells; settings: HepG2, 5 min incubation, BBR 15 μg/ml
LDLR mRNA [5] = test: Real-time quantitative RT-PCR of LDLR mRNA expression in HepG2 cells; assay type: cell-based, human; settings: HepG2, 8 h
LDLR mRNA [6] = test: LDLR mRNA stability under actinomycin D in HepG2 cells (real-time RT-PCR); assay type: cell-based, human; settings: HepG2, actinomycin D 5 μg/ml 30 min before, BBR or CND 15 μg/ml, 4 h
[7] = 32 hypercholesterolemic patients, oral, 1 g daily, 3 months; cited from earlier work
[8] = molecular target: MDR1 transporter (pgp-170) (Homo sapiens, UniProt P08183)
LDLR mRNA [9] = test: Hepatic LDLR mRNA expression in HFHC-fed hamsters (quantitative real-time RT-PCR); assay type: in vivo, Golden Syrian hamsters; settings: BBR 1.8 mg/d, end of 24-day treatment, n=6, p<0.0001
[10] = Measurement of hepatic cholesterol and TG in HFHC-fed hamsters; settings: BBR 1.8 mg/animal/d
LDLR mRNA [11] = test: LDLR mRNA expression with MDR1 blocked by verapamil or MDR1 siRNA in HepG2 cells (real-time PCR); assay type: cell-based, human
Procedure: as §1, with “Isolation of total RNA and analysis of LDLR and GAPDH mRNA by northern blot were performed as previously described (Liu, J et al. J. Lipid Res. 1997, 38: 2035-2048).” left out
Small interference RNA (siRNA) transfection.

LDLR promoter = LDLR promoter dual luciferase reporter assay (pLDLR234Luc) in HepG2 cells; assay type: cell-based, human; settings: 8 h
Procedure: FIG. 1E: Analysis of LDLR promoter activity: HepG2 cells were cotransfected with pLDLR234Luc and a normalizing vector pRL-SV40. […] Firefly luciferase and renilla luciferase activities were measured. The data represent normalized LDLR promoter activity.
Transient transfection and dual luciferase reporter assays. HepG2 cells were transfected with plasmid DNA (100 ng/well) by using FuGENE 6 transfection reagent. The DNA ratio of pLDLR234Luc (Li, C et al. J. Biol. Chem. 1999, 274: 6747-6753) to renilla luciferase reporter pRL-SV40 was 90:10. Twenty h after transfection, medium was changed to 0.5% FBS and drugs were added for 8 h prior to cell lysis. The luciferase activity in cell lysate was measured using Dual Luciferase Assay System obtained from Promega. Triplicate wells were assayed for each transfection condition.

MDR1 = MDR1 (Homo sapiens, UniProt P08183); test: MDR direct dye efflux assay with DiOC2(3) in HepG2 cells; settings: HepG2, co-incubation 2 h, CND 15 μg/ml
Procedure: MDR direct dye efflux assay. The MDR Direct Dye Efflux Assay kit (Cat. No. ECM910, Chemicon International Inc., Temecula, Calif.) was used to measure MDR1 activity. HepG2 cells seeded in 6-well culture plates were incubated in efflux buffer (RPMI+2% BSA) and 1 μg/ml of DiOC2(3) in the absence of presence of tested compounds at 37° C. for 2 h.

liver cells = test: Cell survival by MTT (Cell Proliferation Kit I); assay type: cell-based; settings: different concentrations, 18 h
Procedure: The toxicity of CND and BBR were compared using a cell-based assay. Cell survival rate under drug treatments were determined by Cell Proliferation Kit I (MTT) obtained from Roche Applied Sciences (Indianapolis, Ind.). Cells were seeded in 96-well plates at a density of 5×10^3 cells/well/ in 100 μl medium supplemented with 10% FBS at 37° C. and 5% CO2. After 24 h, cells were incubated with fresh medium containing different concentrations of BBR or CND for 18 h. At the end of drug treatment, 10 μl of MTT labeling reagent per well was added to cells to reach a concentration of 0.5 mg/ml. After a 4 h-reaction, 100 μl of solubilization solution was added to each well and the plate was incubated at 37° C. overnight. The sample spectraphotometrical absorbance was measured by a microplate reader at the wavelength of 550 nm. The reading of sample without drug treatment was defined as 100% survival and readings from drug-treated samples were plotted relative to that value. Quadruple wells were used in each culture condition.

Sequence of MDR1 transporter (pgp-170) (P08183 whole entry): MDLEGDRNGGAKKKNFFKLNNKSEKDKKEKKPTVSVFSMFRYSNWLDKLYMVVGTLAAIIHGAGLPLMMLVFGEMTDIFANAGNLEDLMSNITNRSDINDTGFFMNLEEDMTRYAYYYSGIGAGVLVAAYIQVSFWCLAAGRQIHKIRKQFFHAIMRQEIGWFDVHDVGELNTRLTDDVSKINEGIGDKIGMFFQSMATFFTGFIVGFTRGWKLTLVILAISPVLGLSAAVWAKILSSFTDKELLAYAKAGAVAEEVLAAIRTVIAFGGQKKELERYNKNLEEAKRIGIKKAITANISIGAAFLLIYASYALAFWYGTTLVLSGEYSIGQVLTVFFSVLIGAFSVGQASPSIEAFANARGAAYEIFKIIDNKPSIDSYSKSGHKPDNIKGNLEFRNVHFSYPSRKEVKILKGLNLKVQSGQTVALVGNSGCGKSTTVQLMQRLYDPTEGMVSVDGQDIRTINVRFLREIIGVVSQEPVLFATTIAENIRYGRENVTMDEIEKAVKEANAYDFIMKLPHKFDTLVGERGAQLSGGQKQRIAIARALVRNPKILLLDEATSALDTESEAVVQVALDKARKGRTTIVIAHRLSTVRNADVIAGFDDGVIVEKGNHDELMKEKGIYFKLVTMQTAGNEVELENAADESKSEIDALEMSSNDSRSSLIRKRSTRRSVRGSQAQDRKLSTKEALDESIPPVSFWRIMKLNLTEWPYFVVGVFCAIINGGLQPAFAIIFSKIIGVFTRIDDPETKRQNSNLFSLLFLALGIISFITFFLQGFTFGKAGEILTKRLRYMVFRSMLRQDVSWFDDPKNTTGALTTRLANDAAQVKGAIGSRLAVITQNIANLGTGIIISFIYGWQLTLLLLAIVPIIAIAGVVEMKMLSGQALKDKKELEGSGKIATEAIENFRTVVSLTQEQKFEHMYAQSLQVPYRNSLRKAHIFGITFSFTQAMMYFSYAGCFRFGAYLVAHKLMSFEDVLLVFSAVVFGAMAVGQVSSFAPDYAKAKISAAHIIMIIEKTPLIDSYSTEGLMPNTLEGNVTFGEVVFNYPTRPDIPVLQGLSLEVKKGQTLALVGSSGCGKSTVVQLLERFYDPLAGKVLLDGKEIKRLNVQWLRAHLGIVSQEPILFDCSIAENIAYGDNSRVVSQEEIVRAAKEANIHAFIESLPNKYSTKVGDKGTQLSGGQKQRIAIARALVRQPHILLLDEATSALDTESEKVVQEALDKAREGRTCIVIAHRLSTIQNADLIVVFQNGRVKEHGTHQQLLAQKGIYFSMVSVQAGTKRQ
Sequence of MDR1 (P08183 whole entry): as above

Molecule: COc1cc2c(cc1OC)-c1cc3ccc(OC)c(OC)c3c[n+]1CC2 [PMT, palmatine]
- DNA binding (DNA): strong DNA binding affinities
- LDLR mRNA expression (northern blot) (LDLR mRNA [1]): no regulatory activity on LDLR expression; also recorded: no effects

Molecule: COc1ccc2c(c1OC)C(=O)O[C@@H]2[C@H]1c2cc3c(cc2CCN1C)OCO3 [HDT, β-hydrastine]
- LDLR mRNA expression (northern blot) (LDLR mRNA [1]): no effects

Molecule: COc1ccc2cc3[n+](cc2c1OC)CCc1cc2c(cc1-3)OCO2 [BBR, berberine]
- DNA binding (DNA): strong DNA binding affinities
- LDLR mRNA expression (northern blot) (LDLR mRNA [1]): strong inducers
- levels of phosphorylated ERK in liver (ERK [2]): greatly elevated
- ERK phosphorylation (ERK [3]): attributable to CND and BBR
- body weights [4]: unchanged
- increase of intracellular fluorescent intensity (HepG2 cells): ~2 fold
- increase in LDLR mRNA expression (LDLR mRNA [5]; BBR 20 μg/ml): 3 fold
- LDLR mRNA increase compared to control under transcriptional suppression (LDLR mRNA [6]): ~2.5 fold
- reduction of LDL-c [7]: 25%
- reduction of plasma total cholesterol (TC) [7]: 29%
- reduction of triglyceride (TG) [7]: 35%
- side effects [7]: without side effects
- increase in BBR uptake in MDR1 siRNA transfected cells compared to mock transfected cells ([8]; human, 2 h, 15 μg/ml): 49%
- increase in fluorescent intensity on blocking MDR1 activity with VRMP ([8]; human, 2 h, 15 μg/ml): 49%
- increase in hepatic LDLR mRNA expression (LDLR mRNA [9]): 3.7 fold
- hepatic TC, % of control [10]: 68.7 % of control
- hepatic TG, % of control [10]: 78.3 % of control

Molecule: CN1CCc2cc3c(cc2C1O)OCO3 (stereo not shown) [HDTN, hydrastinine]
- LDLR mRNA expression (northern blot) (LDLR mRNA [1]): no effects

Molecule: COc1ccc(CCN(C)CCCC(C#N)(c2ccc(OC)c(OC)c2)C(C)C)cc1OC (stereo not shown) [VRMP, verapamil]
- effect of VRMP itself on the LDLR mRNA level (LDLR mRNA [11]): little effect

Molecule: COc1ccc2c(c1OC)CN1CCc3cc4c(cc3[C@H]1C2)OCO4 [CND, canadine]
- DNA binding (DNA): does not bind to DNA
- LDLR mRNA expression (northern blot) (LDLR mRNA [1]): strong inducers
- ERK phosphorylation (ERK [3]): attributable to CND and BBR
- dose-dependent effect on LDLR mRNA expression, CND compared with BBR (LDLR mRNA [5]; similar concentration ranges, northern blot and real-time RT-PCR): greater activity than BBR; also recorded: more potent inducer of LDLR expression
- LDLR mRNA increase compared to control under transcriptional suppression (LDLR mRNA [6]): ~2.5 fold
- LDLR promoter activity (LDLR promoter; HepG2, BBR or CND 15 μg/ml): not affected at all
- efflux of DiOC2(3) (MDR1): no inhibitory effect
- toxicity to liver cells (cell survival, MTT), CND compared with BBR (liver cells): less toxic to liver cells than berberine (BBR)
- fold increase in activity on LDLR mRNA in the presence of VRMP vs absence (LDLR mRNA [11]; HepG2, 0.6 μM VRMP, 8 h, 3 separate experiments, mean±S.D.): 0.82±0.34 fold
- effect of MDR1 siRNA transfection on activity in elevation of LDLR mRNA level (LDLR mRNA [11]; HepG2, siRNA 3 days, drug 6 h): not affected
- MDR1 substrate status ([8]; inferred from lack of VRMP effect on activity in HepG2): not a substrate of MDR1

B1: OM: cytokine oncostatin M, known activator of the LDLR promoter (protein, UniProt P13725 26-221, looked up)
Oncostatin-M: AAIGSCSKEYRVLLGQLQKQTDLMQDTSRLLDPYIRIQGLDVPKLREHCRERPGAFPSEETLRGLGRRGFLQTLNATLGCVLHRLADLEQRLPKAQDLERSGLNIEDLEKLQMARPNILGLRNNIYCMAQLLDNSDTAEPTKAGRGASQPPTPTPASDAFQRKLEGCRFLHGYHRFMHSVGRVFSKWGESPNRSRR
- LDLR promoter activity (LDLR promoter; HepG2, OM 50 ng/ml): strongly elevated

Source: patent US20080124404A1 (priority 2006, published 2008)
